Values after ≈ are worked out from the molar mass of the structure shown.
Assays:
Format in all cases: cell-based
[1] = system: BGC-823 (human gastric cancer cells); assay: MTT method, inhibition of cell growth in vitro; conditions: 48 h; for IC50: BGC-823, MTT
Description: (§1) A. Experimental Materials and the Preparation Thereof: • (1) Cell lines: PANC-1 (human pancreatic cancer cells), SKOV3 (human ovarian cancer cells), MCF-7 (human breast cancer cells), SMMC-7721 (human liver cancer cells), A549 (human lung cancer cells), BGC-823 (human gastric cancer cells), COLO205 (human colonic cancer cells), storaged and passaged maintainably in Research and Evaluation Center for Pharmacology, Shanghai Institute of Pharmaceutical Industry; • (2) DMEM complete medium supplied with 10% newborn calf serum (GIBCO BRL), 1% of penicillin (100 U/mL)+streptomycin (100 μg/mL); • (3) 0.25% trypsin solution, purchased from Invitrogen Corp. and storaged at −20; • (4) Phosphate buffer (PBS): NaCl 8 g, KCl 0.2 g, Na2HPO4 1.15 g and KH2PO4 0.2 g, dissolved in 1 L double-distilled water and autoclaved at 121 for 20 min, then storaged at 4; • (5) MTT (AMRESCO) solution: 5 mg/ml in PBS; • (6) Formazan crystal dissolving solution: SDS 10 g, isobutanol 5 ml and concentrated hydrochloric acid 0.1 ml, dissolved in 100 ml of deionized double distilled water.
(§2) The inhibition effects of the compound of formula (I) on the above-mentioned cell lines were detected by using MTT method. The specific procedures were as follows:
(§3) (1) Cell culture: (a) Storaged cells were taken out from the liquid nitrogen, thawed quickly in a 37 water bath, then aseptically transferred into 6 ml of cellular medium in a 10 ml centrifugal tube, centrifuged at 1000 rpm for 5 min. The supernatant was discarded, then the precipitated cells were re-suspended in 5-6 ml cellular media by pipetting and transferred into a flask in a 37 incubator for cell culture; (b) Next day, the flask was taken out from the incubator and the used medium was discarded, then the cells were incubated in 5-6 ml fresh medium in the 37 incubator; (c) On the third day, the flask was taken out from the incubator and the used medium was discarded, then 2-3 ml of PBS (pH7.4) was added into the flask with rocking for cleaning it and the used PBS was discarded. Such a cellular cleaning step was repeated once again. 3-5 drops of 0.25% trypsin solution were added into the flask with sloshing, thus well-distributed in it. The flask was capped and placed in a 37 incubator for about 3 min, and the separation of cells from the flask wall was observed under the microscope. 2 ml of cellular medium was added and cells were separated completely from the flask wall by pipetting, then the cell suspension was transferred into 2 separate clean flasks, each containing 5-6 ml medium. The cell suspension was well-distributed by pipetting, then the flask was placed in a 37 incubator. (d) Step(c) was repeated every other day. In the whole cultivation process, adherent cells were not allowed to grow too dense and suspension cells were always maintained at a logarithmic growth stage.
(§4) (2) Preparation of the sample and the control: A proper amount of sample of the compound of formula (I) was dissolved in DMSO to obtain a solution in a concentration of 10 mg/ml. This solution was diluted in a gradient dilution with PBS to obtain a set of sample solutions in the concentration of 10 mg/ml, 5000 μg/ml, 2500 μg/ml, 1250 μg/ml, 625 μg/ml and 312.5 μg/ml, respectively.
(§5) (3) Each diluted sample solution was added into duplicated wells of a 96 well flat-bottom microplate (10 μl/well). The correspondingly diluted DMSO solutions, as controls, were added into the wells of the microplate.
(§6) (4) Cells in a logarithmic growth stage were trypsinized and washed, then re-suspended in the medium containing 10% calf serum. The number of living cells was counted in Trypan blue dye exclusion method and cell suspensions were adjusted into a density of 2×10^5 cell/ml.
(§7) (5) The cell-contained 96 well flat-bottom microplate was placed in a 37 incubator and cells were incubated under 5% CO2 for 48 h.
(§8) (6) 20 it of 5 mg/ml MTT solution was added into each well and cells were incubated continuously in the incubator for 3-4 h. […]

[2] = system: COLO205 (human colonic cancer cells); assay: MTT method, inhibition of cell growth in vitro; conditions: 48 h; for IC50: COLO 205, COLO205, MTT
Description: as §1, §2, §3, §4, §5, §6, §7, §8

[3] = system: PANC-1 (human pancreatic cancer cells); assay: MTT method, inhibition of cell growth in vitro; conditions: 48 h; for IC50: PANC-1, MTT
Description: as §1, §2, §3, §4, §5, §6, §7, §8

[4] = system: SMMC-7721 (human liver cancer cells); assay: MTT method, inhibition of cell growth in vitro; conditions: 48 h; for IC50: SMMC-7721, MTT
Description: as §1, §2, §3, §4, §5, §6, §7, §8

[5] = system: A549 (human lung cancer cells); assay: MTT method, inhibition of cell growth in vitro; conditions: 48 h
Description: as §1, §2, §3, §4, §5, §6, §7, §8

[6] = system: MCF-7 (human breast cancer cells); assay: MTT method, inhibition of cell growth in vitro; conditions: 48 h
Description: as §1, §2, §3, §4, §5, §6, §7, §8

[7] = system: SKOV3 (human ovarian cancer cells); assay: MTT method, inhibition of cell growth in vitro; conditions: 48 h
Description: as §1, §2, §3, §4, §5, §6, §7, §8

[8] = system: 7 human tumor cell lines; assay: MTT method, overall conclusion on 7 human tumor cell lines; conditions: various concentrations
Description: as §1
The inhibition effects of the compound of formula (I) on the above-mentioned cell lines were detected by using MTT method. The specific procedures were as follows: […]

With `CC(=O)O[C@H]1C(=O)[C@@]2(C)[C@H]([C@H](OC(=O)c3ccccc3)[C@]3(O)C[C@H](OC(=O)[C@H](O)[C@@H](NC(=O)c4ccccc4)c4ccccc4)C(C)=C1C3(C)C)[C@]1(OC(C)=O)CO[C@@H]1C[C@@H]2O` [Taxol, reference compound] the IC50 [1] was 0.24 µg/mL (≈ 0.281 µM), the IC50 [2] was 0.75 µg/mL (≈ 0.878 µM) and the IC50 [3] was 0.44 µg/mL (≈ 0.515 µM). For the same molecule, the IC50 [4] was 0.12 µg/mL (≈ 0.141 µM).
`CCCCCC=CCC=CCCCCCCCC(=O)OC(COC(=O)CCCCCCCC=CCCCCCCCC)COC(=O)CCCCCCCC=CCCCCCCCC` (centres unmarked) [compound of formula (I), 1,3-diolein-2-linolein] showed an inhibition at 31.25 µg/mL ([5]; A549, 31.25 μg/ml, read-out: Inhibition rate on the cell growth) of 5.16%, an inhibition at 62.5 µg/mL ([5]; A549, 62.5 μg/ml, read-out: Inhibition rate on the cell growth) of 25.6% and an inhibition at 125 µg/mL ([5]; A549, 125 μg/ml, read-out: Inhibition rate on the cell growth) of 46.4%. It also gave an inhibition at 250 µg/mL ([5]; A549, 250 μg/ml, read-out: Inhibition rate on the cell growth) of 50.5%, an inhibition at 500 µg/mL ([5]; A549, 500 μg/ml, read-out: Inhibition rate on the cell growth) of 67% and an inhibition at 1000 µg/mL ([5]; A549, 1000 μg/ml, read-out: Inhibition rate on the cell growth) of 98.2%. It also gave an IC50 ([5]; A549, MTT) of 156 µg/mL, an inhibition at 31.25 µg/mL ([1]; BGC-823, 31.25 μg/ml, read-out: Inhibition rate on the cell growth) of 8.31% and an inhibition at 62.5 µg/mL ([1]; BGC-823, 62.5 μg/ml, read-out: Inhibition rate on the cell growth) of 63.8%. For the same molecule, the inhibition at 125 µg/mL ([1]; BGC-823, 125 μg/ml, read-out: Inhibition rate on the cell growth) was 79%, the inhibition at 250 µg/mL ([1]; BGC-823, 250 μg/ml, read-out: Inhibition rate on the cell growth) was 76.2% and the inhibition at 500 µg/mL ([1]; BGC-823, 500 μg/ml, read-out: Inhibition rate on the cell growth) was 85%. For the same molecule, the inhibition at 1000 µg/mL ([1]; BGC-823, 1000 μg/ml, read-out: Inhibition rate on the cell growth) was 98.5%, the IC50 [1] was 85 µg/mL and the inhibition at 31.25 µg/mL ([2]; COLO 205, COLO205, 31.25 μg/ml, read-out: Inhibition rate on the cell growth) was 8.95%. For the same molecule, the inhibition at 62.5 µg/mL ([2]; COLO 205, COLO205, 62.5 μg/ml, read-out: Inhibition rate on the cell growth) was 10.7%, the inhibition at 125 µg/mL ([2]; COLO 205, COLO205, 125 μg/ml, read-out: Inhibition rate on the cell growth) was 12.6% and the inhibition at 250 µg/mL ([2]; COLO 205, COLO205, 250 μg/ml, read-out: Inhibition rate on the cell growth) was 43.9%. The inhibition at 500 µg/mL ([2]; COLO 205, COLO205, 500 μg/ml, read-out: Inhibition rate on the cell growth) was 82.3%, the inhibition at 1000 µg/mL ([2]; COLO 205, COLO205, 1000 μg/ml, read-out: Inhibition rate on the cell growth) was 93.8% and the IC50 [2] was 209 µg/mL. For the same molecule, the inhibition at 31.25 µg/mL ([6]; MCF7, MCF-7, 31.25 μg/ml, read-out: Inhibition rate on the cell growth) was 13.3%, the inhibition at 62.5 µg/mL ([6]; MCF7, MCF-7, 62.5 μg/ml, read-out: Inhibition rate on the cell growth) was 31.5% and the inhibition at 125 µg/mL ([6]; MCF7, MCF-7, 125 μg/ml, read-out: Inhibition rate on the cell growth) was 62.3%. For the same molecule, the inhibition at 250 µg/mL ([6]; MCF7, MCF-7, 250 μg/ml, read-out: Inhibition rate on the cell growth) was 67.1%, the inhibition at 500 µg/mL ([6]; MCF7, MCF-7, 500 μg/ml, read-out: Inhibition rate on the cell growth) was 68.8% and the inhibition at 1000 µg/mL ([6]; MCF7, MCF-7, 1000 μg/ml, read-out: Inhibition rate on the cell growth) was 99.7%. The IC50 ([6]; MCF7, MCF-7, MTT) was 106 µg/mL, the inhibition at 62.5 µg/mL ([3]; PANC-1, 62.5 μg/ml, read-out: Inhibition rate on the cell growth) was 0.8% and the inhibition at 125 µg/mL ([3]; PANC-1, 125 μg/ml, read-out: Inhibition rate on the cell growth) was 2.01%. For the same molecule, the inhibition at 250 µg/mL ([3]; PANC-1, 250 μg/ml, read-out: Inhibition rate on the cell growth) was 25.9%, the inhibition at 500 µg/mL ([3]; PANC-1, 500 μg/ml, read-out: Inhibition rate on the cell growth) was 48.1% and the inhibition at 1000 µg/mL ([3]; PANC-1, 1000 μg/ml, read-out: Inhibition rate on the cell growth) was 75%. For the same molecule, the IC50 [3] was 509 µg/mL, the inhibition at 31.25 µg/mL ([7]; SK-OV-3, SKOV3, 31.25 μg/ml, read-out: Inhibition rate on the cell growth) was 9.97% and the inhibition at 62.5 µg/mL ([7]; SK-OV-3, SKOV3, 62.5 μg/ml, read-out: Inhibition rate on the cell growth) was 34%. For the same molecule, the inhibition at 125 µg/mL ([7]; SK-OV-3, SKOV3, 125 μg/ml, read-out: Inhibition rate on the cell growth) was 76.8%, the inhibition at 250 µg/mL ([7]; SK-OV-3, SKOV3, 250 μg/ml, read-out: Inhibition rate on the cell growth) was 79.4% and the inhibition at 500 µg/mL ([7]; SK-OV-3, SKOV3, 500 μg/ml, read-out: Inhibition rate on the cell growth) was 93.8%. It also gave an inhibition at 1000 µg/mL ([7]; SK-OV-3, SKOV3, 1000 μg/ml, read-out: Inhibition rate on the cell growth) of 99.3%, an IC50 ([7]; SK-OV-3, SKOV3, MTT) of 92.6 µg/mL and an inhibition at 31.25 µg/mL ([4]; SMMC-7721, 31.25 μg/ml, read-out: Inhibition rate on the cell growth) of 8.81%. For the same molecule, the inhibition at 62.5 µg/mL ([4]; SMMC-7721, 62.5 μg/ml, read-out: Inhibition rate on the cell growth) was 13.4%, the inhibition at 125 µg/mL ([4]; SMMC-7721, 125 μg/ml, read-out: Inhibition rate on the cell growth) was 38.5% and the inhibition at 250 µg/mL ([4]; SMMC-7721, 250 μg/ml, read-out: Inhibition rate on the cell growth) was 62.3%. It also gave an inhibition at 500 µg/mL ([4]; SMMC-7721, 500 μg/ml, read-out: Inhibition rate on the cell growth) of 80%, an inhibition at 1000 µg/mL ([4]; SMMC-7721, 1000 μg/ml, read-out: Inhibition rate on the cell growth) of 98.8% and an IC50 [4] of 150 µg/mL. For the same molecule, the “Inhibition on 7 human tumor cell lines (in words)” value [8] was “obvious inhibition on 7 human tumor cell lines”.
